Measured values reported in patent US20190233409A1, “SUBSTITUTED 2,3,4,5-TETRAHYDRO-1H-PYRIDO[4,3-B]INDOLES, METHODS FOR USE THEREOF” (priority 2017, published 2019).
Structures can show the parent of a compound that is named as a salt.

test system: calcium canals regulated by the intracellular calcium depot; test: Histamine-induced calcium stream in SK-N-SH cells, Phase 2 (lowering of intracellular calcium concentration); assay type: cell-based; conditions: Homo sapiens, 10 μM histamine, Fura 2 AM, Phase 2: discharge of intraplasmatic calcium

SMILES	EC50
CN1CCc2c(c3cc(F)ccc3n2CCc2ccccc2)C1 [1.2.1(7)HCl, 2-methyl-5-(2-phenylethyl)-8 fluoro-2,3,4,5-tetrahydro-1H-pyrido[4,3-b]indole hydrochloride]	0.13 µM
CN1CCc2c(c3cc(F)ccc3n2/C=C\c2ccccc2)C1 [1.1.1(1), cis-2-methyl-5-(2-phenylethenyl)-8-fluoro-2,3,4,5-tetrahydro-1H-pyrido[4,3-b]indole]	0.15 µM
Cc1ccc2c(c1)c1c(n2CCc2ccncc2)CCN(C)C1.Cl [1.2.1(2)HCl, 2,8-dimethyl-5-[2-(pyridin-4-yl)ethyl]-2,3,4,5-tetrahydro-1H-pyrido[4,3-b]indole hydrochloride]	3.98 µM
CN1CCc2c(c3ccccc3n2/C=C/c2ccccc2)C1 [1.1(2), trans-2-methyl-5-(2-phenylethenyl)-2,3,4,5-tetrahydro-1H-pyrido[4,3-b]indole]	2.13 µM
Cc1ccc2c(c1)c1c(n2C#Cc2ccccc2)CCN(C)C1 [1.3.1(5), 2,8-dimethyl-5-phenylethynyl-2,3,4,5-tetrahydro-1H-pyrido[4,3-b]indole]	> 10 µM
CN1CCc2c(c3cc(F)ccc3n2CCc2ccncc2)C1 [1.2.1(8)HCl, 2-methyl-5-[2-(pyridin-4-yl)ethyl]-8-fluoro-2,3,4,5-tetrahydro-1H-pyrido[4,3-b]indole hydrochloride]	0.47 µM
CN1CCc2c(c3cc(F)ccc3n2/C=C\c2cccnc2)C1 [1.1.1(2), cis-2-methyl-5-[2-(pyridin-3-yl)ethenyl]-8-fluoro-2,3,4,5-tetrahydro-1H-pyrido[4,3-b]indole]	> 10 µM
CN1CCc2c(c3ccccc3n2/C=C/c2ccncc2)C1 [1.1(3), trans-2-methyl-5-[2-(pyridin-4-yl)ethenyl]-2,3,4,5-tetrahydro-1H-pyrido[4,3-b]indole]	> 10 µM
CN1CCc2c(c3ccccc3n2C#Cc2cccnc2)C1 [1.3(3), 2-methyl-5-(pyridin-3-ylethynyl)-2,3,4,5-tetrahydro-1H-pyrido[4,3-b]indole]	> 10 µM
Cc1ccc2c(c1)c1c(n2CCc2cnccn2)CCN(C)C1 [1.2.1(6), 2,8-dimethyl-5-[2-(pyrazin-2-yl)ethyl]-2,3,4,5-tetrahydro-1H-pyrido[4,3-b]indole]	7.94 µM
CN1CCc2c(c3ccccc3n2/C=C\c2ccccc2)C1 [1.1(1), cis-2-methyl-5-(2-phenylethenyl)-2,3,4,5-tetrahydro-1H-pyrido[4,3-b]indole]	0.18 µM
CN1CCc2c(c3ccccc3n2C#Cc2ccccc2)C1 [1.3(1), 2-methyl-5-phenylethynyl-2,3,4,5-tetrahydro-1H-pyrido[4,3-b]indole]	10.1 µM
Cc1ccc2c(c1)c1c(n2C#Cc2cccnc2)CCN(C)C1 [1.3.1(7), 2,8-dimethyl-5-(pyridin-3-ylethynyl)-2,3,4,5-tetrahydro-1H-pyrido[4,3-b]indole]	> 10 µM
Cc1ccc2c(c1)c1c(n2CCc2ccccn2)CCN(C)C1.Cl [1.2.1(4)HCl, 2,8-dimethyl-5-[2-(pyridin-2-yl)ethyl]-2,3,4,5-tetrahydro-1H-pyrido[4,3-b]indole hydrochloride]	10 µM
Cc1ccc2c(c1)c1c(n2CCc2cccnc2)CCN(C)C1 [1.2.1(3)HCl, 2,8-dimethyl-5-[2-(pyridin-3-yl)ethyl]-2,3,4,5-tetrahydro-1H-pyrido[4,3-b]indole hydrochloride]	0.579 µM
CN1CCc2c(c3cc(F)ccc3n2C#Cc2cccnc2)C1 [1.3.1(3), 2-methyl-5-(pyridin-3-ylethynyl)-8-fluoro-2,3,4,5-tetrahydro-1H-pyrido[4,3-b]indole]	> 10 µM
CN1CCc2c(c3cc(F)ccc3n2/C=C\c2cccc(F)c2)C1 [1.1.1(6), cis-2-methyl-5-[2-(3-fluorophenyl)ethenyl]-8-fluoro-2,3,4,5-tetrahydro-1H-pyrido[4,3-b]indole]	0.19 µM
Cc1ccc(CCn2c3c(c4cc(F)ccc42)CN(C)CC3)cn1 [1.2.1(11)HCl, 2-methyl-5-[2-(6-methylpyridin-3-yl)ethyl]-8-fluoro-2,3,4,5-tetrahydro-1H-pyrido[4,3-b]indole hydrochloride]	0.73 µM
CN1CCc2c(c3ccccc3n2CCc2ccncc2)C1 [1.2(2)HCl, 2-methyl-5-[2-(pyridin-4-yl)ethyl]-2,3,4,5-tetrahydro-1H-pyrido[4,3-b]indole hydrochloride]	0.5 µM
CN1CCc2c(c3ccccc3n2CCc2ccccn2)C1 [1.2(4)HCl, 2-methyl-5-[2-(pyridin-2-yl)ethyl]-2,3,4,5-tetrahydro-1H-pyrido[4,3-b]indole hydrochloride]	0.93 µM
CN1CCc2c(c3cccc(F)c3n2CCc2ccccc2)C1 [1.2.2(1)HCl]	0.25 µM
CN1CCc2c(c3cc(F)ccc3n2CCc2cccnc2)C1 [1.2.1(9)HCl, 2-methyl-5-[2-(pyridin-3-yl)ethyl]-8-fluoro-2,3,4,5-tetrahydro-1H-pyrido[4,3-b]indole hydrochloride]	0.297 µM
CN1CCc2c(c3cc(F)ccc3n2CCc2ccccn2)C1 [1.2.1(10)HCl, 2-methyl-5-[2-(pyridin-2-yl)ethyl]-8-fluoro-2,3,4,5-tetrahydro-1H-pyrido[4,3-b]indole hydrochloride]	0.61 µM
CN1CCc2c(c3ccccc3n2CCc2cccnc2)C1 [1.2(3)HCl, 2-methyl-5-[2-(pyridin-3-yl)ethyl]-2,3,4,5-tetrahydro-1H-pyrido[4,3-b]indole hydrochloride]	0.412 µM
Cc1ccc2c(c1)c1c(n2/C=C\c2ccccc2)CCN(C)C1 [1.1.1(3), cis-2,8-dimethyl-5-(2-phenylethenyl)-2,3,4,5-tetrahydro-1H-pyrido[4,3-b]indole]	0.154 µM
CN1CCc2c(c3ccccc3n2/C=C\c2cccnc2)C1 [1.1(4), cis-2-methyl-5-[2-(pyridin-3-yl)ethenyl]-2,3,4,5-tetrahydro-1H-pyrido[4,3-b]indole]	> 10 µM
CN1CCc2c(c3ccccc3n2/C=C/c2ccccn2)C1 [1.1(5), trans-2-methyl-5-[2-(pyridin-2-yl)ethenyl]-2,3,4,5-tetrahydro-1H-pyrido[4,3-b]indole]	> 10 µM

test system: BALB/c male mice; test: Passive Avoidance of Mice in a Shuttle Chamber, memory disturbed by scopolamine (Example 7); assay type: in vivo; conditions: scopolamine 0.3 mg/kg, injected 30 minutes before training
Protocol: Example 7. […] A shuttle chamber (Ugo Basile, Italy) consisted of two sections was used. […] The sections were connected via a hole which could be shut with a vertical door. The floor was made of transverse metal bars on which DC current impulses could be fed. Experiments were carried out on aged male mice of line BALB/c weighing 20-24 grams. […] Each group consisted of at least 8 animals. The animals were placed in the light section, and the latent period of the first entry into the dark chamber was registered. Then the vertical door was closed and the animal was punished by 0.6 mA DC current for 3 seconds. After that the animal was carried back to its living cell. In 22-24 hours the same animal was placed in the light section of the shuttle chamber once again and the latent period before its entry into the dark section, the total time of its stay in the light section and the number of entries into the dark section were registered. Each observation lasted for 5 minutes. The experiment was carried out during the day time in an isolated laboratory using white noise at a level of about 70 decibel above the human hearing threshold. Scopolamine causes the disturbance of training (memory loss) which results in […]. The fact that 5-HT6 receptor antagonists can improve the learning ability that has been disturbed by scopolamine is regarded as evidence for their nootropic effect.

SMILES	nootropic action (passive avoidance, FIGS. 2-4)
Cc1ccc2c(c1)c1c(n2CCc2ccncc2)CCN(C)C1.Cl [1.2.1(2)HCl, 2,8-dimethyl-5-[2-(pyridin-4-yl)ethyl]-2,3,4,5-tetrahydro-1H-pyrido[4,3-b]indole hydrochloride]	exhibit a nootropic action which is the most prominent
Cc1ccc2c(c1)c1c(n2CCc2ccccn2)CCN(C)C1.Cl [1.2.1(4)HCl, 2,8-dimethyl-5-[2-(pyridin-2-yl)ethyl]-2,3,4,5-tetrahydro-1H-pyrido[4,3-b]indole hydrochloride]	exhibit a nootropic action which is the most prominent

test system: BALB/c male mice; test: Passive Avoidance of Mice in a Shuttle Chamber, scopolamine or MK-801 (Example 8); assay type: in vivo; conditions: scopolamine 0.3 mg/kg or MK-801 0.1 mg/kg
Protocol: Example 7. […] A shuttle chamber (Ugo Basile, Italy) consisted of two sections was used. […] The sections were connected via a hole which could be shut with a vertical door. The floor was made of transverse metal bars on which DC current impulses could be fed. Experiments were carried out on aged male mice of line BALB/c weighing 20-24 grams.
On the first day of the experiment 30 minutes before training the mice were injected intraintestinally with physiological solution of scopolamine (0.3 mg/kg) or scopolamine in combination with antagonists of 5-HT6 receptors 1.2.1(2)HCl, 1.2.1(4)HCl or 1.2.1(5)HCl. Each group consisted of at least 8 animals. The animals were placed in the light section, and the latent period of the first entry into the dark chamber was registered. Then the vertical door was closed and the animal was punished by 0.6 mA DC current for 3 seconds. After that the animal was carried back to its living cell. In 22-24 hours the same animal was placed in the light section of the shuttle chamber once again and the latent period before its entry into the dark section, the total time of its stay in the light section and the number of entries into the dark section were registered. Each observation lasted for 5 minutes.
The experiment was carried out in the same way as in example 7. On the first day 30 minutes before training the mice were injected intra-intestinally with a physiological solution of scopolamine (0.3 mg/kg) or MK-801(0.1 mg/kg).

SMILES	nootropic action (passive avoidance, FIGS. 5-10)
O=S(=O)(c1ccccc1)c1cnc2c(N3CCNCC3)cccc2c1 [SB-742457]	inactive

test system: SHK male mice; test: Recognition of New Objects by Mice Under Scopolamine and MK-801; assay type: in vivo; conditions: scopolamine 1 mg/kg and MK-801 0.2 mg/kg
Protocol: The experiments were carried out in a closed cross shaped labyrinth which consisted of 4 peripheral sections connected with the central chamber via a 7×7 cm hole. The labyrinth was made of black plastic and its sections were of 14×14×14 cm size. The top cover of the labyrinth was transparent.
A mouse was placed in the central section of the labyrinth and allowed to investigate the environment. A mouse was considered to have entered a section once all of its four paws were inside the chamber. A test was considered to be completed when the mouse had moved 12 times between the sections, having made a total of 13 visits. The floor of the labyrinth was cleaned after each animal.
With each mouse the test was carried out twice with 1 hour interval.
During the first test, each section of the labyrinth contained a circular plastic cup of 3 cm height and 7 cm diameter. During the second test the cover in each of the two opposing sections was replaced by a conical glass bulb of 7 cm height and 4 cm across the bottom. The time that the mice spent in each section of the labyrinth was registered and the index of new object recognition was calculated as the ratio of the time spent in the sections with the bulbs to the time spent in all sections of the labyrinth. If no preference is given to the sections with new objects the index is 0.5.
When new objects appear the mice spend more time in the section containing them that results in an increased recognition index. Scopolamine (1 mg/kg) and MK-801 (0.2 mg/kg) disturbed learning (memory) that leads to lowering of the recognition index.

SMILES	nootropic action (new object recognition, FIG. 13-14)
CC12CC3CC(C)(C1)CC(N)(C3)C2 [memantine]	nootropic action
O=S(=O)(c1ccccc1)c1cnc2c(N3CCNCC3)cccc2c1 [SB-742457]	nootropic action
